# Measured values as given in patent US20260216348A1, “IRAK DEGRADATION AGENT AND USE THEREOF” (Increland, priority 2023, published 2026).
# System: CIA-induced rheumatoid arthritis model
# Assay: CIA-induced rheumatoid arthritis model
# Format: in vivo, DBA/1J mice
# Settings: QD, Model 12.31 ± 2.97, Mean ± SD, n = 7
# Method: 1. DBA/1J mice, male, SPF grade, were pre-acclimatized in the animal facility for one week. 2. On day 1, for the primary immunization, 2 mg/mL bovine type II collagen was mixed thoroughly with an equal volume of complete Freund's adjuvant on ice using a homogenizer until fully emulsified. 100 μL of the collagen emulsion (final concentration 1 mg/mL) was intradermally injected at 2 cm from the base of the mouse tail. Medical iodophor was used to disinfect the tail after injection to prevent tail necrosis, which was conducted for 3 consecutive days. 3. On day 21, bovine type II collagen solution was thoroughly mixed and emulsified with an equal volume of Freund's incomplete adjuvant, using the same method as the primary immunization. 4. On day 26, LPS was administered intraperitoneally at a dose of 50 μg/animal to induce disease. 5. On day 28, the affected mice were scored according to Table 33 and the diameter of their ankle joints was measured. Mice were randomly grouped and treated with medication based on their scores and ankle diameter.
compound,measurement,setting,value
CN(C)c1cc2nn([C@H]3CC[C@H](CN4CC[C@@H](n5cc6cc(C7CCC(=O)NC7=O)c(F)cc6n5)[C@@H](F)C4)CC3)cc2cc1NC(=O)c1cnn2cccnc12 (some centres unmarked) [TM-135],DAI Score d 42,15 mg/kg,11.17 ± 2.36
same,DAI Score d 42,45 mg/kg,9.60 ± 3.33
